Source: ChEMBL document CHEMBL5247581, “Design, synthesis and biological evaluation of new quinazolinone-benzopyran-indole hybrid compounds promoting osteogenesis through BMP2 upregulation” (Eur J Med Chem, 2022)
The source made the active and inactive calls. The calls are words filed in the database; no cut-off is given here.

Assays:
Calvarial osteoblast [1] = experiment: Induction of osteogenesis in mouse Osteoblast cells assessed as ALP activity at 0.001 to 100 uM measured for 24 to 48 hrs; assay type: functional; conditions: dose 0.001-100 µM, time 24-48 hrs
[2] = Induction of osteoblast mineralization in mouse Bone marrow cells assessed as increase in mineralized nodule formation at 100 pM replaced with media every 48 hrs for 21 days by Alizarin Red staining-based microscopic analysis; assay type: functional, Bone marrow cell; conditions: time 21 day
Mus musculus [3] = experiment: Induction of osteogenesis in BALB/c mouse assessed as increase in Col1a1 gene expression at 5 mg/kg, ip by qRT-PCR analysis; assay type: functional, organism-based
Mus musculus [4] = experiment: Induction of osteogenesis in BALB/c mouse assessed as increase in RUNX2 gene expression at 5 mg/kg, ip by qRT-PCR analysis; assay type: functional, organism-based
Calvarial osteoblast [5] = experiment: Induction of osteoblast differentiation in mouse Osteoblast cells assessed as fold increase in BMP2 expression at 100 pM by qRT-PCR analysis; assay type: functional
Calvarial osteoblast [6] = experiment: Induction of osteogenesis in mouse Osteoblast cells assessed as ALP activity at 0.001 to 100 uM measured for 48 hrs; assay type: functional, cell-based; conditions: dose 0.001-100 µM
Calvarial osteoblast [7] = experiment: Induction of osteogenesis in mouse Osteoblast cells assessed as ALP activity at 0.001 to 100 uM measured for 24 hrs; assay type: functional, cell-based; conditions: dose 0.001-100 µM
Mus musculus [8] = experiment: Induction of osteogenesis in BALB/c mouse assessed as fold increase in RUNX2 gene expression at 5 mg/kg, ip by qRT-PCR analysis; assay type: functional
Mus musculus [9] = experiment: Induction of osteogenesis in BALB/c mouse assessed as increase in BGLAP gene expression at 5 mg/kg, ip by qRT-PCR analysis; assay type: functional, organism-based
Calvarial osteoblast [10] = experiment: Induction of osteoblast differentiation in mouse Osteoblast cells assessed as fold increase in RUNX2 expression at 100 pM by qRT-PCR analysis; assay type: functional
Calvarial osteoblast [11] = experiment: Induction of osteogenesis in mouse Osteoblast cells assessed as fold increase in BMP2 gene expression at 100 pM by qRT-PCR analysis; assay type: functional
[12] = Induction of osteoblast mineralization in mouse Bone marrow cells assessed as increase in mineralized nodule formation at 10 nM replaced with media every 48 hrs for 21 days by Alizarin Red staining-based microscopic analysis; assay type: functional, Bone marrow cell; conditions: time 21 day
Calvarial osteoblast [13] = experiment: Cytotoxicity against mouse Osteoblast cells assessed as reduction in cell viability at 100 uM measured for 24 to 48 hrs by MTT assay; assay type: toxicity, cell-based; conditions: time 24-48 hrs
Calvarial osteoblast [14] = experiment: Cytotoxicity against mouse Osteoblast cells assessed as reduction in cell viability at 0.000001 to 1 uM measured for 24 to 48 hrs by MTT assay; assay type: toxicity, cell-based; conditions: dose lower 1e-06 µM, time lower 24 hrs, dose upper 1 µM, time upper 48 hrs
Mus musculus [15] = experiment: Induction of bone formation in BALB/c mouse model assessed as morphological architecture at 1 mg/kg by histopathological analysis; assay type: functional, organism-based
Calvarial osteoblast [16] = experiment: Induction of osteogenesis in mouse Osteoblast cells assessed as ALP activity at 0.001 to 1 uM measured for 48 hrs; assay type: functional, cell-based; conditions: dose 0.001-1 µM
[17] = Upregulation of BMP2 expression in mouse Osteoblast cells assessed as fold increase in phosphorylated p38 level measured at 24 hrs by ELISA analysis; assay type: functional, Calvarial osteoblast
Mus musculus [18] = experiment: Induction of bone formation in BALB/c mouse model assessed as bone formation rate/bone surface at 1 to 5 mg/kg by double labelling based analysis; assay type: functional, organism-based; conditions: dose 1-5 mg/kg
Calvarial osteoblast [19] = experiment: Induction of osteogenesis in mouse Osteoblast cells assessed as fold increase in ALP expression at 100 pM by qRT-PCR analysis; assay type: functional
Mus musculus [20] = experiment: Induction of osteogenesis in BALB/c mouse assessed as fold increase in BGLAP gene expression at 5 mg/kg, ip by qRT-PCR analysis; assay type: functional
Calvarial osteoblast [21] = experiment: Induction of osteogenesis in mouse Osteoblast cells assessed as fold increase in BGLAP expression at 10 nM by qRT-PCR analysis; assay type: functional
Mus musculus [22] = experiment: Induction of osteogenesis in BALB/c mouse assessed as fold increase in Col1a1 gene expression at 5 mg/kg, ip by qRT-PCR analysis; assay type: functional
Mus musculus [23] = experiment: Induction of bone formation in BALB/c mouse model assessed as calvarial bone formation at 1 to 5 mg/kg by double labelling based analysis; assay type: functional, organism-based; conditions: dose 1-5 mg/kg
Mus musculus [24] = experiment: Induction of bone formation in BALB/c mouse model assessed as mineral apposition rate at 1 to 5 mg/kg by double labelling based analysis; assay type: functional, organism-based; conditions: dose 1-5 mg/kg
Mus musculus [25] = experiment: Induction of osteogenesis in BALB/c mouse assessed as fold increase in BMP2 gene expression at 5 mg/kg, ip by qRT-PCR analysis; assay type: functional
Mus musculus [26] = experiment: Induction of bone formation in BALB/c mouse model assessed as mineralizing surface per bone surface at 1 to 5 mg/kg by double labelling based analysis; assay type: functional, organism-based; conditions: dose 1-5 mg/kg
Calvarial osteoblast [27] = experiment: Induction of osteogenesis in mouse Osteoblast cells assessed as fold increase in mRNA expression at 1 to 10000 pM by qRT-PCR analysis; assay type: functional; conditions: dose 1-10000 pM
Mus musculus [28] = experiment: Induction of bone formation in BALB/c mouse model assessed as increase in intercortical distance at 1 mg/kg by histopathological analysis; assay type: functional, organism-based
Calvarial osteoblast [29] = experiment: Induction of osteogenesis in mouse Osteoblast cells assessed as ALP activity at 100 pM measured for 24 to 48 hrs; assay type: functional, cell-based; conditions: time 24-48 hrs
Mus musculus [30] = experiment: Induction of osteogenesis in BALB/c mouse assessed as increase in BMP2 gene expression at 5 mg/kg, ip by qRT-PCR analysis; assay type: functional, organism-based
Calvarial osteoblast [31] = experiment: Induction of osteoblast differentiation in mouse calvarial osteoblasts cells assessed as ALP activity at 1 to 10000 pM measured for 7 days; assay type: functional, cell-based; conditions: dose 1-10000 pM, time 7.0 day
Calvarial osteoblast [32] = experiment: Induction of osteogenesis in mouse Osteoblast cells assessed as fold increase in BGLAP expression at 1 to 100 pM by qRT-PCR analysis; assay type: functional; conditions: dose 1-100 pM
Calvarial osteoblast [33] = experiment: Induction of osteogenesis in mouse Osteoblast cells assessed as fold increase in RUNX2 gene expression at 1 pM by qRT-PCR analysis; assay type: functional
Calvarial osteoblast [34] = experiment: Induction of osteogenesis in mouse Osteoblast cells assessed as ALP activity at 1 to 1000 pM measured for 24 to 48 hrs; assay type: functional, cell-based; conditions: dose 1-1000 pM, time 24-48 hrs
Calvarial osteoblast [35] = experiment: Induction of osteogenesis in mouse Osteoblast cells assessed as ALP activity at 10 nM measured for 24 to 48 hrs; assay type: functional, cell-based; conditions: time 24-48 hrs
Calvarial osteoblast [36] = experiment: Induction of osteogenesis in mouse Osteoblast cells assessed as ALP activity at 100 to 1000000 pM measured for 24 to 48 hrs; assay type: functional, cell-based; conditions: dose 100-1e+06 pM, time 24-48 hrs

CCn1c(-c2cc3c(c(C(C)(C)C)c2)OC(N)=C(C#N)C3c2c(C)[nH]c3ccccc23)nc2ccccc2c1=O (stereo not drawn)
Activity (Calvarial osteoblast [1]): 9%

CCn1c(-c2cc(C)c3c(c2)C(c2c(C)[nH]c4ccccc24)C(C#N)=C(N)O3)nc2ccccc2c1=O (stereo not drawn)
Activity [2]: 30%
Activity (Mus musculus [3]): Active
Activity (Mus musculus [4]): Active
fold change (FC) (Calvarial osteoblast [5]): 2.3
Activity (Calvarial osteoblast [6]): Active
Activity (Calvarial osteoblast [7]): inactive
fold change (FC) (Mus musculus [8]): 11
Activity (Mus musculus [9]): Active
fold change (FC) (Calvarial osteoblast [10]): 2.7
fold change (FC) (Calvarial osteoblast [11]): 3
Activity (Calvarial osteoblast [1]): 50%
Activity [12]: 50%
Activity (Calvarial osteoblast [13]): Toxic
Activity (Calvarial osteoblast [14]): Non-Toxic
Activity (Mus musculus [15]): Active
Activity (Calvarial osteoblast [16]): Active
fold change (FC) [17]: 1.5
Activity (Mus musculus [18]): Active
fold change (FC) (Calvarial osteoblast [19]): 3
fold change (FC) (Mus musculus [20]): 7
fold change (FC) (Calvarial osteoblast [21]): 4
fold change (FC) (Mus musculus [22]): 10
Activity (Mus musculus [23]): Active
Activity (Mus musculus [24]): Active
fold change (FC) (Mus musculus [25]): 6
Activity (Mus musculus [26]): Active
fold change (FC) (Calvarial osteoblast [27]): 2
Activity (Mus musculus [28]): Active
Activity (Calvarial osteoblast [29]): Active
Activity (Mus musculus [30]): Active
Activity (Calvarial osteoblast [31]): Active
fold change (FC) (Calvarial osteoblast [32]): 2
fold change (FC) (Calvarial osteoblast [33]): 2

Cc1cc(-c2nc3ccccc3c(=O)n2C)cc2c1OC(N)=C(C#N)C2c1c(C)[nH]c2ccccc12 (stereo not drawn)
Activity (Calvarial osteoblast [1]): inactive

Cc1[nH]c2ccccc2c1C1C(C#N)=C(N)Oc2c1cc(-c1nc3ccccc3c(=O)n1C)cc2C(C)(C)C (stereo not drawn)
Activity (Calvarial osteoblast [1]): inactive

CCn1c(-c2cc3c(c(C(C)(C)C)c2)OC(N)=C(C#N)C3c2c(C)[nH]c3ccc(OC)cc23)nc2ccccc2c1=O (stereo not drawn)
Activity (Calvarial osteoblast [1]): 1%

Cc1[nH]c2ccccc2c1C1C(C#N)=C(N)Oc2ccccc21 (stereo not drawn)
Activity (Calvarial osteoblast [34]): inactive
Activity (Calvarial osteoblast [1]): inactive
Activity (Calvarial osteoblast [35]): inactive

CCc1cc(-c2nc3ccccc3c(=O)n2C)cc2c1OC(N)=C(C#N)C2c1c(C)[nH]c2ccccc12 (stereo not drawn)
Activity (Calvarial osteoblast [1]): 7%

CCCc1cc(-c2nc3ccccc3c(=O)n2CC)cc2c1OC(N)=C(C#N)C2c1c(C)[nH]c2ccccc12 (stereo not drawn)
Activity (Calvarial osteoblast [1]): 12%

CCn1c(C)nc2ccccc2c1=O
Activity (Calvarial osteoblast [34]): inactive
Activity (Calvarial osteoblast [1]): 1%
Activity (Calvarial osteoblast [36]): inactive
Activity (Calvarial osteoblast [35]): inactive

CCn1c(-c2cc(C)c3c(c2)C(c2c(C)n(CC)c4ccccc24)C(C#N)=C(N)O3)nc2ccccc2c1=O (stereo not drawn)
Activity (Calvarial osteoblast [1]): inactive

COc1ccc2[nH]c(C)c(C3C(C#N)=C(N)Oc4c3cc(-c3nc5ccccc5c(=O)[nH]3)cc4C(C)(C)C)c2c1 (stereo not drawn)
Activity (Calvarial osteoblast [1]): inactive

COc1ccc2[nH]c(C)c(C3C(C#N)=C(N)Oc4c(C(C)C)cc(-c5nc6ccccc6c(=O)n5C)cc43)c2c1 (stereo not drawn)
Activity (Calvarial osteoblast [1]): inactive

CCn1c(-c2cc(C(C)C)c3c(c2)C(c2c(C)[nH]c4ccccc24)C(C#N)=C(N)O3)nc2ccccc2c1=O (stereo not drawn)
Activity (Calvarial osteoblast [1]): 6%

Cc1[nH]c2ccccc2c1C1C(C#N)=C(N)Oc2c(C(C)C)cc(-c3nc4ccccc4c(=O)n3C)cc21 (stereo not drawn)
Activity (Calvarial osteoblast [1]): 1%

CCCc1cc(-c2nc3ccccc3c(=O)n2C)cc2c1OC(N)=C(C#N)C2c1c(C)[nH]c2ccccc12 (stereo not drawn)
Activity (Calvarial osteoblast [1]): inactive

COc1ccc2[nH]c(C)c(C3C(C#N)=C(N)Oc4c(C)cc(-c5nc6ccccc6c(=O)n5C)cc43)c2c1 (stereo not drawn)
Activity (Calvarial osteoblast [1]): 13%
